From patent publication EP0419081A2, “Method for protein binding enzyme complementation assays” (MICROGENICS CORPORATION, priority 1989, dated 1991) come the findings set out here.

Where two headings read alike, the source gives them in different places.

One data set has as its target T1, FBP (Bos taurus, UniProt P02702).
T1 construct: purchased Scripps
Description: Folate dose response. In kind it is biochemical. The note with it: for 5′- 9′: rate OD₄₂₀ 5 to 9 min, FBP 1:1000, ED14-folate #34. As for the experimental part: The following buffer systems and reagents were used and will be abbreviated as stated below: • 1. Sample buffer; 100 mM sodium phosphate, 20 mM sodium azide and 0.2% BSA. • 2. Assay buffer pH 7.0; 10 mM ethylene glycol tetraacetic acid, 2 mM magnesium acetate, 20 mM sodium azide, 150 mM sodium phosphate, 100 mM potassium phosphate, 0.05% Tween 20, 0.05 mM dithiothreitol, adjusted to pH 7.0. • 3. EA; enzyme acceptor • 4. ED; enzyme donor • 5. FBP Scripps; folate binding protein from Scripps 2.25 mg/ml stock • 6. CPRG; chlorophenol red β-D galactopyranoside • 7. ONPG: 2-nitrophenol β-D galactopyranoside
A folate dose response was elicited as follows. The following reagents were prepared; EA at a concentration of 3750 nM in Assay buffer p8 7.0, ED14-folate (fraction #34) at a concentration of 26.66 nM in Assay/ONPG buffer pH 7.0, FBP at a dilution of 1:1000 in sample buffer and folic acid standards at 0, 2.5, 5.0, 10.0 and 20.0 ng/ml in sample buffer. […] Rates were calculated by subtracting the OD₄₂₀ at 5 min from the OD₄₂₀ at 9 min.

Data set [1] has as its system anti-T4 antibody (T4-pool 393A). The data set is described as follows: Immunochemical testing on the Encore, T4 conjugates. In kind it is biochemical. As for the experimental part:
The immunochemical testing was performed on the Encore. […] The ligand concentrations employed are indicated in the legend to the table. The ED and antibody were preincubated on the rotor for 15 min at 37°C. All antibody concentrations were assayed in duplicate. No correction was made for variations of total protein in the assays.

For a further data set, the system named is EA23. As for the experimental part:
This example illustrates an immunoassay for thyroxine as analyte using H6-thyroxine conjugate as enzyme-donor, EA23 as enzyme-acceptor, anti-thyroxine antibody and a series of concentrations of thyroxine.
Reagents for the assay were prepared as follows: L-thyroxine standard: 2.6 mg L-thyroxine (Sigma Chemical, St. Louis, MO) was dissolved in 200 µl absolute ethanol and 800 µl 0.15M NaHCO₃ added and the mixture stored at 25°C. Two fold dilutions of thyroxine were prepared in ethanol: 0.15M NaHCO₃ (1:4). L-thyroxine antibody: Antisera to thyroxine (T4) was purchased from Western Chemical Research Corp., Denver, CO. Several lots were tested for titer and an equilibrium constant determined in a radio-immunoassay with IgM Sorb (Enzyme Center, Malden, MA). […] EA23 acceptor-enzyme: 6.3X10-⁷M in storage buffer. Substrate: o-nitrophenyl-β-D-galactopyranoside (ONPG) was dissolved in 2.5 X Z buffer to a final concentration 10 mg/ml solution.
The assay was performed in microtiter plates (Dynatech Cat. #001-012-9200 American Scientific Products, Sunnyvale, CA) and read on a Titertak Multiscan microtiter plate reader fitted with a 414 nm filter (Flow Laboratories, Rockville, MO). To each well was added 100 µl of PM2 buffer containing 0.05% Tween 20 (polyoxyethylene sorbitan monolaurate) (Sigma Chemical Co., St. Louis, MO). To each well was added sequentially 2.5 µl H6-thyroxine conjugate, 2.5 µl of anti-thyroxine antibody, 2.5 µl of the thyroxine standards and 40 µl of EA23.

In a further data set the test system is EA. The data set is described as follows: Equilibrium specific activity. The class given is biochemical. The note with it: ED and EA incubated together for 18 hours.
For a further data set, the system named is anti-T4 antibody. Description: Affinity constant by ED titration, Scatchard plot, T4 conjugates. In kind it is binding. The note with it: ED titration against fixed anti-T4 Ab, no secondary antibody. As for the experimental part:
The Ka was determined as follows: To determine the affinity constant of an antibody for an experimental ED conjugate, an ED titration against a fixed antibody is carried out. Antibody binding to the conjugated ED is monitored by inhibition of formation of active enzyme as indicated by a decrease in chromogenic substrate turnover. The resulting data is plotted in a Scatchard format (Bound/Free vs. [Bound]). The slope of the line generated is equal to ∼KA in L/mole.

Data set [2] deals with analyte specific antiserum. The data set is described as follows: Immunopurity by precipitation of the enzyme donor conjugate with antibody. In kind it is binding. The note with it: % of ED conjugate activity which can be removed by analyte specific antiserum.
Description: Immunopurity was determined by precipitation of the enzyme donor conjugate with anti-T4 antibody TgG Sorbheads. The ED is incubated with primary antibody at room temperature for 15 min on a rocker shaker. Secondary antibody is added and incubation continued for 15 min. The suspension is centrifuged and an aliquot of the supernatant is saved for the assay. The above cycle is repeated on the remaining supernatant for a total of five cycles. […] The ED concentration during incubation is 20 nM. Assay concentrations are EA 500 nM; ED, 4 nM; and ONPG, 1mg/ml. Immunopurity is expressed as percent of ED activity precipitable by primary antibody.

T1 sequence (P02702 20-234): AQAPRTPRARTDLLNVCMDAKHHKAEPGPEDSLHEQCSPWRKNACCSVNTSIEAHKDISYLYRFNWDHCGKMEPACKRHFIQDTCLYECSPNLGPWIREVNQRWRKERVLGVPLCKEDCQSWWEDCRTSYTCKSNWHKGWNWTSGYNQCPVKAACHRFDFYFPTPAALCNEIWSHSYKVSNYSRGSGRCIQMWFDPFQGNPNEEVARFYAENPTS

With `Nc1nc2ncc(CNc3ccc(C(=O)N[C@@H](CCC(=O)O)C(=O)O)cc3)nc2c(=O)[nH]1` [folic acid], on FBP (folic acid standard 5.0 ng/ml), the “% Mod” value is reported as 13.4%, the Net was 52 and the “5′- 9′” value worked out at 388.5. On FBP (folic acid standard 10.0 ng/ml), the “% Mod” value was determined as 24.1%, the Net was found to be 107 and the “5′- 9′” value is 443.5. Besides, at FBP (folic acid standard 20.0 ng/ml), the “% Mod” value is 40.0%, the Net is 2255 and the “5′- 9′” value is on record as 562.
With “m-maleimide-benzoyl-L-Thyroxine-ED₄ conjugate [ED4T4]”, the “Immunochemical Testing %I 1/2Sat” value in data set [1] (T4-pool 393A at 1:12,000, ED titrated until one-half of Ab binding sites saturated, no secondary antibody) is given as 34%. Further, the “Immunochemical Testing (0.125 nM Sys [ED])” value in data set [1] (maximum amount of complementation inhibition, ED system concentration 0.125 nM, Ab constant) was determined as 47%. Further, the OD₄₁₅ came to 0.001 with EA23 (Well 2: ED₄-T4 2.5 µl only, no EA); 0.595 in the data set with EA23 (Well 3: ED₄-T4 2.5 µl, EA 40 µl); 0.300 with EA23 (Well 4: ED₄-T4 2.5 µl, Antibody 2.5 µl, EA 40 µl); 0.312 with EA23 (Well 5: ED₄-T4 2.5 µl, Antibody 2.5 µl, Thyroxine 6.25 µg/µl, EA 40 µl); 0.320 in the data set on EA23 (Well 6: ED₄-T4 2.5 µl, Antibody 2.5 µl, Thyroxine 12.5 µg/µl, EA 40 µl); 0.364 in the data set with EA23 (Well 7: ED₄-T4 2.5 µl, Antibody 2.5 µl, Thyroxine 25 µg/µl, EA 40 µl). In addition, in the data set with EA, the “Specific Activity (u/mg) (% ED4-T4) Equilibrium” value amounted to 100%. For the same molecule, the “Ka (L/mole) x10-9” value with anti-T4 antibody is reported as 1.97 L/mole x10-9. In data set [2], the Immuno-Purity is recorded as 96%.
